Legend:
Assay in all cases: radiometric filter-binding kinase assay
LCK (mouse) = conditions: accession and sequence are those of the human protein
[1] = test system: PAK2 (human), Q13177 [T402E]
CHEK1 (human) = CHEK1 (human) (UniProt O14757)
EPHB2 (human) = EPHB2 (human) (UniProt P29323)
MAPKAPK5 (human) = MAPKAPK5 (human) (UniProt Q8IW41)
MKNK1 (human) = MKNK1 (human) (UniProt Q9BUB5)
SRPK1 (human) = SRPK1 (human) (UniProt Q96SB4)
ROCK2 (rat) = conditions: accession and sequence are those of the human protein
GCK (human) = GCK (human) (UniProt Q12851)
MARK3 (human) = MARK3 (human) (UniProt P27448)
BRSK2 (human) = BRSK2 (human) (UniProt Q8IWQ3)
BRSK2 (human), sequence (Q8IWQ3 whole entry, looked up): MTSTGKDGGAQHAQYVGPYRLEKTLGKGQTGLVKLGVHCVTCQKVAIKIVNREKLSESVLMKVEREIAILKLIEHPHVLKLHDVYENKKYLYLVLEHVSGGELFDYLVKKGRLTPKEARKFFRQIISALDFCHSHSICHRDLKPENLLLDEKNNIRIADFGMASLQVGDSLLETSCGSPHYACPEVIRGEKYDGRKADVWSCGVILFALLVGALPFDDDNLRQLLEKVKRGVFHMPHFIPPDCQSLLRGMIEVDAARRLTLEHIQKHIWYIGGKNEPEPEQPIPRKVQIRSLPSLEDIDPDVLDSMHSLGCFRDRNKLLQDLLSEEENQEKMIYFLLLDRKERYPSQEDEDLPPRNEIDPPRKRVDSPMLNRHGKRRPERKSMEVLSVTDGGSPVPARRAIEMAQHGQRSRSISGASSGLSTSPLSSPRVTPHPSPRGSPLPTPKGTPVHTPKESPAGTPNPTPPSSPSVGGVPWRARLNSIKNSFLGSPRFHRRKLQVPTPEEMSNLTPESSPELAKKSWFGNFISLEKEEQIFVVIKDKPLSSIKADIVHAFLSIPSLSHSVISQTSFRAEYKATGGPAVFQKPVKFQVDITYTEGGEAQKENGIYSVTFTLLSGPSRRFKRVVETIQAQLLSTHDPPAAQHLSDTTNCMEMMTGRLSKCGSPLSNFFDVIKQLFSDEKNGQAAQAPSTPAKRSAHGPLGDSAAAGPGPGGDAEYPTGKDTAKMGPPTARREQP

[2] = test system: SGK1 (human), O00141 [S422D]
SGK1 (human), O00141 [S422D], sequence (O00141 whole entry S422D, looked up): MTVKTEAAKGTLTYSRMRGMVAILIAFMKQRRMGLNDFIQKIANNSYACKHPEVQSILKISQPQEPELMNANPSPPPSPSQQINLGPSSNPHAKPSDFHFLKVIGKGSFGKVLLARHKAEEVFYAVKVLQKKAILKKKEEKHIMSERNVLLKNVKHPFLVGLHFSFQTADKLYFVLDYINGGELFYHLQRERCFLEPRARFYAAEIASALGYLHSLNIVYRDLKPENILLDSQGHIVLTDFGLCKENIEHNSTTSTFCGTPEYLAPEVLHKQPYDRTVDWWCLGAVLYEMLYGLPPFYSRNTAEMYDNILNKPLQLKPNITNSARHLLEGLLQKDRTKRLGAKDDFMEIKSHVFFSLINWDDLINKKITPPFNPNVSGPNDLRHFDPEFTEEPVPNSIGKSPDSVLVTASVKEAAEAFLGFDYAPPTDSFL

TBK1 (human) = TBK1 (human) (UniProt Q9UHD2)
HIPK2 (human) = HIPK2 (human) (UniProt Q9H2X6)
DAPK1 (human) = DAPK1 (human) (UniProt P53355)
MINK1 (human) = MINK1 (human) (UniProt Q8N4C8)
HIPK1 (human) = HIPK1 (human) (UniProt Q86Z02)
TAOK1 (human) = TAOK1 (human) (UniProt Q7L7X3)
MAPK10 (human) = MAPK10 (human) (UniProt P53779)
STK3 (human) = STK3 (human) (UniProt Q13188)
STK3 (human), sequence (Q13188 whole entry, looked up): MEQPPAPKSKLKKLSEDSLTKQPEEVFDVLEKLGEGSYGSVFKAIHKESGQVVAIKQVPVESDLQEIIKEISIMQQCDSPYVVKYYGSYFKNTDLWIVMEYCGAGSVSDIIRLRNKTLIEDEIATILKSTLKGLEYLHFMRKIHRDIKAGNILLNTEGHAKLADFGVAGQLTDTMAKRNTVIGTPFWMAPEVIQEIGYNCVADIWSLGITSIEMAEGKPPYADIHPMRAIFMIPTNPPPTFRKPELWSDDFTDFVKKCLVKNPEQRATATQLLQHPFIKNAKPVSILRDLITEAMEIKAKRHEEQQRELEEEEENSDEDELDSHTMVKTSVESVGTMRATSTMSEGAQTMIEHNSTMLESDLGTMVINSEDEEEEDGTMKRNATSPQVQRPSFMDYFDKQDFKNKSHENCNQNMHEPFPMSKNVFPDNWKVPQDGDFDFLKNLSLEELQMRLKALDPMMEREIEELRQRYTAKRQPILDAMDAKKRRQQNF

MAPK8 (human) = MAPK8 (human) (UniProt P45983)
DYRK3 (human) = DYRK3 (human) (UniProt O43781)
MAPK11 (human) = MAPK11 (human) (UniProt Q15759)
AURKB (human) = AURKB (human) (UniProt Q96GD4)
AURKB (human), sequence (Q96GD4 whole entry, looked up): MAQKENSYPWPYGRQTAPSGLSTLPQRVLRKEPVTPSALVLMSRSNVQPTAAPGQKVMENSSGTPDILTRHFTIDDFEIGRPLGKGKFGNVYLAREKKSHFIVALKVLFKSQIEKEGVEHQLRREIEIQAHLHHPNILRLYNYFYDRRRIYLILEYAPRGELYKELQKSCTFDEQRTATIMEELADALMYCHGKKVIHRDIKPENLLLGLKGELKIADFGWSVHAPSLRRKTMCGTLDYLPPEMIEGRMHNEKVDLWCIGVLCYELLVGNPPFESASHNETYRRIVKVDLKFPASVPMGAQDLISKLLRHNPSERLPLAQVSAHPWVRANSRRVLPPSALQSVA

PHKG1 (human) = PHKG1 (human) (UniProt Q16816)
MAPK13 (human) = MAPK13 (human) (UniProt O15264)
CSNK2A1 (human) = CSNK2A1 (human) (UniProt P68400)
PIM3 (human) = PIM3 (human) (UniProt Q86V86)
DYRK1A (human) = DYRK1A (human) (UniProt Q13627)
JAK2 JH1 JH2 (human) = JAK2 JH1 JH2 (human) (UniProt O60674)
CAMKK2 (human) = CAMKK2 (human) (UniProt Q96RR4)
IGF1R (human) = IGF1R (human) (UniProt P08069)
IGF1R (human), sequence (P08069 whole entry, looked up): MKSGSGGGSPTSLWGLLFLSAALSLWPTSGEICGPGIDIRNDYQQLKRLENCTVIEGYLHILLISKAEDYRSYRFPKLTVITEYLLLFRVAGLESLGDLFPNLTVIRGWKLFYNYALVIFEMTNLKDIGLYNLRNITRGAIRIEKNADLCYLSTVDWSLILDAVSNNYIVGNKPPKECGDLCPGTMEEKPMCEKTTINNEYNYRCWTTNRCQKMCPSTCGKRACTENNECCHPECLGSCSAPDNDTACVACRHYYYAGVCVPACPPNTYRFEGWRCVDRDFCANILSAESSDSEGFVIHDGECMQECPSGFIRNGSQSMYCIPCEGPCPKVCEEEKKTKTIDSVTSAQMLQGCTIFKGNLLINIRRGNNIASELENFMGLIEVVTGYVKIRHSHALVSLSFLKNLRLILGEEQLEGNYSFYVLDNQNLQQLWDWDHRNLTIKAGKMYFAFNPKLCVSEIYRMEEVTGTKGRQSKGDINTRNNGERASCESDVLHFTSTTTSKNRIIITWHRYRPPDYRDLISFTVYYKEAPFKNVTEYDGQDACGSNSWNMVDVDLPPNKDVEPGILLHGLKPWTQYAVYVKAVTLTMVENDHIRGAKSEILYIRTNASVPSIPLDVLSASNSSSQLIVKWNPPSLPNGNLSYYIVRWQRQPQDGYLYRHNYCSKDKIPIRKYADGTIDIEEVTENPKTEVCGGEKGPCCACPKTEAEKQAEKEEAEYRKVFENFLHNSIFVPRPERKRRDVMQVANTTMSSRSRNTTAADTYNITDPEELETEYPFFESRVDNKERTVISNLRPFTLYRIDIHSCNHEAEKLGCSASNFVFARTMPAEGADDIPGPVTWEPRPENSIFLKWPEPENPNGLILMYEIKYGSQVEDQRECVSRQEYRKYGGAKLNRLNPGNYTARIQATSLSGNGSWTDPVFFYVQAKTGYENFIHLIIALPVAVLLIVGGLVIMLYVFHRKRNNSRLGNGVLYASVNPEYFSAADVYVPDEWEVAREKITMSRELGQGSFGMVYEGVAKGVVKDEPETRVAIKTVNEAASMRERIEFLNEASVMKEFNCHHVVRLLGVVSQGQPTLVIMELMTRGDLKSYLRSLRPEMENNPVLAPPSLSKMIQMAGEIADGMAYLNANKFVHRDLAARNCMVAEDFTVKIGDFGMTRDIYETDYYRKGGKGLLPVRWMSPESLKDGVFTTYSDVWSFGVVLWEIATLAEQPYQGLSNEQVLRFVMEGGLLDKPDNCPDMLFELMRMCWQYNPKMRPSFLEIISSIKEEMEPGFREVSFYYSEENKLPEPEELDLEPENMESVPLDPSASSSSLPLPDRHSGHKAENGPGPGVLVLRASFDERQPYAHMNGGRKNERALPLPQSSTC

CLK2 (human) = CLK2 (human) (UniProt P49760)
FGFR1 (human) = FGFR1 (human) (UniProt P11362)
CaMK1 (human) = CaMK1 (human) (UniProt Q14012)
YES1 (human) = YES1 (human) (UniProt P07947)
YES1 (human), sequence (P07947 whole entry, looked up): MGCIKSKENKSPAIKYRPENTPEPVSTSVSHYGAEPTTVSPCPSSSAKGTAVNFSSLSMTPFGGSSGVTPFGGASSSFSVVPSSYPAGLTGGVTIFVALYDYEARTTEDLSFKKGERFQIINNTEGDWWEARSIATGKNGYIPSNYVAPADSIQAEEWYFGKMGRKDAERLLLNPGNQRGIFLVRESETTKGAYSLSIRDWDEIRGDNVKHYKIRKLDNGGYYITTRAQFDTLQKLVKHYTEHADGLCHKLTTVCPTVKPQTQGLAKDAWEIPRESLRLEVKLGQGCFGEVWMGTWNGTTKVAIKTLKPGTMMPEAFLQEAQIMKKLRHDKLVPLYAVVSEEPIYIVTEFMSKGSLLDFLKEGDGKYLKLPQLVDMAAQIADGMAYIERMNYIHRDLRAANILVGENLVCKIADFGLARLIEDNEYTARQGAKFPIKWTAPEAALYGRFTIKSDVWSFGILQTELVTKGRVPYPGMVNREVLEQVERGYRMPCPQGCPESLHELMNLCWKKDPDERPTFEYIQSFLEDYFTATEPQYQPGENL

CHEK1 (human), sequence (O14757 whole entry, looked up): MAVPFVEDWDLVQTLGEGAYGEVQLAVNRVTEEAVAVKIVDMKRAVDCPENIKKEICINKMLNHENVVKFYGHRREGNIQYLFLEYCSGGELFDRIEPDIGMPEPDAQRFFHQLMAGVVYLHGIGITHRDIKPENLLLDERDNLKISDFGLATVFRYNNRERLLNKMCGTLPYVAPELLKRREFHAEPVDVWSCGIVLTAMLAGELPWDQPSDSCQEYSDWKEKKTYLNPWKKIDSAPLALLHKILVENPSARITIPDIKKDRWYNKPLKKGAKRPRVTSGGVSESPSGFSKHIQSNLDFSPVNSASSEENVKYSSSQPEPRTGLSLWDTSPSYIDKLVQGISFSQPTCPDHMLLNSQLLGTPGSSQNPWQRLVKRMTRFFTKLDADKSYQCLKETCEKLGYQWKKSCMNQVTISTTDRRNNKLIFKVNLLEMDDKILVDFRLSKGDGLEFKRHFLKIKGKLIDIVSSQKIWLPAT
SRPK1 (human), sequence (Q96SB4 whole entry, looked up): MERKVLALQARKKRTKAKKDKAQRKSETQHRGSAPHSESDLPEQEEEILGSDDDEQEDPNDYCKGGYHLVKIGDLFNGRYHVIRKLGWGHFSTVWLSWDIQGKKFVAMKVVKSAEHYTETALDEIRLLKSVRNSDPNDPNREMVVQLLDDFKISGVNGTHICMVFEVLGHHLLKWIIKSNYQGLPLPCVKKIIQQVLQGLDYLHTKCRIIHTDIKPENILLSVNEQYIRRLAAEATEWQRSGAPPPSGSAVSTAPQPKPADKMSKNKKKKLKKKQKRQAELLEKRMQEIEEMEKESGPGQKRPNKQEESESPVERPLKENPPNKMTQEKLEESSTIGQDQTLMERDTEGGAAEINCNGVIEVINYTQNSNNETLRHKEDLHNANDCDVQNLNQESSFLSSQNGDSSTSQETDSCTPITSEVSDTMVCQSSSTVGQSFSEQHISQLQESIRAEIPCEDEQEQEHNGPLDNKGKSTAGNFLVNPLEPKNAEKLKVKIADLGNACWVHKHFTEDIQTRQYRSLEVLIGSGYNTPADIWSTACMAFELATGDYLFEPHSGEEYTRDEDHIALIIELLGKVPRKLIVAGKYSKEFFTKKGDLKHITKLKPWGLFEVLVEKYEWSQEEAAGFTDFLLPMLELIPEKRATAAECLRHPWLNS

A residual activity (LCK (mouse); compound 0.1 µM) of 106%, a residual activity (LCK (mouse); compound 1.0 µM) of 112% and a residual activity (LCK (mouse); compound 10.0 µM) of 80% were found for `NC1(c2ccc(-c3nc4ccn5c(=O)[nH]nc5c4cc3-c3ccccc3)cc2)CCC1` in this work. It also gave a residual activity ([1]; compound 0.1 µM) of 98%, a residual activity ([1]; compound 1.0 µM) of 94% and a residual activity ([1]; compound 10.0 µM) of 103%. It also gave a residual activity (CHEK1 (human); compound 0.1 µM) of 96%, a residual activity (CHEK1 (human); compound 1.0 µM) of 78% and a residual activity (CHEK1 (human); compound 10.0 µM) of 45%. For the same molecule, the residual activity (EPHB2 (human); compound 0.1 µM) was 107%, the residual activity (EPHB2 (human); compound 1.0 µM) was 93% and the residual activity (EPHB2 (human); compound 10.0 µM) was 74%. For the same molecule, the residual activity (MAPKAPK5 (human); compound 0.1 µM) was 81%, the residual activity (MAPKAPK5 (human); compound 10.0 µM) was 102% and the residual activity (MKNK1 (human); compound 0.1 µM) was 105%. For the same molecule, the residual activity (MKNK1 (human); compound 1.0 µM) was 104%, the residual activity (MKNK1 (human); compound 10.0 µM) was 58% and the residual activity (SRPK1 (human); compound 0.1 µM) was 107%. The residual activity (SRPK1 (human); compound 1.0 µM) was 106%, the residual activity (SRPK1 (human); compound 10.0 µM) was 116% and the residual activity (ROCK2 (rat); compound 0.1 µM) was 85%. The residual activity (ROCK2 (rat); compound 1.0 µM) was 87%, the residual activity (ROCK2 (rat); compound 10.0 µM) was 91% and the residual activity (GCK (human); compound 0.1 µM) was 108%. The residual activity (GCK (human); compound 1.0 µM) was 97%, the residual activity (GCK (human); compound 10.0 µM) was 85% and the residual activity (MARK3 (human); compound 0.1 µM) was 85%. For the same molecule, the residual activity (MARK3 (human); compound 1.0 µM) was 99%, the residual activity (MARK3 (human); compound 10.0 µM) was 91% and the residual activity (BRSK2 (human); compound 0.1 µM) was 102%. The residual activity (BRSK2 (human); compound 1.0 µM) was 88%, the residual activity (BRSK2 (human); compound 10.0 µM) was 94% and the residual activity ([2]; compound 0.1 µM) was 90%. For the same molecule, the residual activity ([2]; compound 1.0 µM) was 85%, the residual activity ([2]; compound 10.0 µM) was 63% and the residual activity (TBK1 (human); compound 0.1 µM) was 88%. For the same molecule, the residual activity (TBK1 (human); compound 1.0 µM) was 102%, the residual activity (TBK1 (human); compound 10.0 µM) was 89% and the residual activity (HIPK2 (human); compound 0.1 µM) was 102%. It also gave a residual activity (HIPK2 (human); compound 1.0 µM) of 97%, a residual activity (HIPK2 (human); compound 10.0 µM) of 80% and a residual activity (DAPK1 (human); compound 0.1 µM) of 85%. It also gave a residual activity (DAPK1 (human); compound 1.0 µM) of 90%, a residual activity (DAPK1 (human); compound 10.0 µM) of 48% and a residual activity (MINK1 (human); compound 0.1 µM) of 106%. For the same molecule, the residual activity (MINK1 (human); compound 1.0 µM) was 86%, the residual activity (MINK1 (human); compound 10.0 µM) was 69% and the residual activity (HIPK1 (human); compound 0.1 µM) was 91%. It also gave a residual activity (HIPK1 (human); compound 1.0 µM) of 85%, a residual activity (HIPK1 (human); compound 10.0 µM) of 97% and a residual activity (TAOK1 (human); compound 0.1 µM) of 104%. It also gave a residual activity (TAOK1 (human); compound 1.0 µM) of 90%, a residual activity (TAOK1 (human); compound 10.0 µM) of 85% and a residual activity (MAPK10 (human); compound 0.1 µM) of 93%. The residual activity (MAPK10 (human); compound 1.0 µM) was 91%, the residual activity (MAPK10 (human); compound 10.0 µM) was 84% and the residual activity (STK3 (human); compound 0.1 µM) was 79%. It also gave a residual activity (STK3 (human); compound 1.0 µM) of 97%, a residual activity (STK3 (human); compound 10.0 µM) of 94% and a residual activity (MAPK8 (human); compound 0.1 µM) of 100%. It also gave a residual activity (MAPK8 (human); compound 1.0 µM) of 100%, a residual activity (MAPK8 (human); compound 10.0 µM) of 87% and a residual activity (DYRK3 (human); compound 0.1 µM) of 98%. It also gave a residual activity (DYRK3 (human); compound 1.0 µM) of 89%, a residual activity (DYRK3 (human); compound 10.0 µM) of 81% and a residual activity (MAPK11 (human); compound 0.1 µM) of 99%. For the same molecule, the residual activity (MAPK11 (human); compound 1.0 µM) was 77%, the residual activity (MAPK11 (human); compound 10.0 µM) was 76% and the residual activity (AURKB (human); compound 0.1 µM) was 106%. It also gave a residual activity (AURKB (human); compound 1.0 µM) of 88%, a residual activity (AURKB (human); compound 10.0 µM) of 78% and a residual activity (PHKG1 (human); compound 0.1 µM) of 109%. It also gave a residual activity (PHKG1 (human); compound 1.0 µM) of 98%, a residual activity (PHKG1 (human); compound 10.0 µM) of 68% and a residual activity (MAPK13 (human); compound 0.1 µM) of 100%. It also gave a residual activity (MAPK13 (human); compound 1.0 µM) of 90%, a residual activity (MAPK13 (human); compound 10.0 µM) of 106% and a residual activity (CSNK2A1 (human); compound 0.1 µM) of 104%. For the same molecule, the residual activity (CSNK2A1 (human); compound 10.0 µM) was 84%, the residual activity (PIM3 (human); compound 0.1 µM) was 89% and the residual activity (PIM3 (human); compound 1.0 µM) was 83%. It also gave a residual activity (PIM3 (human); compound 10.0 µM) of 51%, a residual activity (DYRK1A (human); compound 0.1 µM) of 95% and a residual activity (DYRK1A (human); compound 1.0 µM) of 88%. The residual activity (DYRK1A (human); compound 10.0 µM) was 57%, the residual activity (JAK2 JH1 JH2 (human); compound 1.0 µM) was 84% and the residual activity (JAK2 JH1 JH2 (human); compound 10.0 µM) was 94%. The residual activity (CAMKK2 (human); compound 0.1 µM) was 92%, the residual activity (CAMKK2 (human); compound 1.0 µM) was 99% and the residual activity (CAMKK2 (human); compound 10.0 µM) was 84%. For the same molecule, the residual activity (IGF1R (human); compound 0.1 µM) was 116%, the residual activity (IGF1R (human); compound 1.0 µM) was 85% and the residual activity (IGF1R (human); compound 10.0 µM) was 55%. For the same molecule, the residual activity (CLK2 (human); compound 0.1 µM) was 103%, the residual activity (CLK2 (human); compound 1.0 µM) was 81% and the residual activity (CLK2 (human); compound 10.0 µM) was 67%. It also gave a residual activity (FGFR1 (human); compound 0.1 µM) of 100%, a residual activity (FGFR1 (human); compound 1.0 µM) of 95% and a residual activity (FGFR1 (human); compound 10.0 µM) of 70%. It also gave a residual activity (CaMK1 (human); compound 0.1 µM) of 108%, a residual activity (CaMK1 (human); compound 1.0 µM) of 87% and a residual activity (CaMK1 (human); compound 10.0 µM) of 35%. For the same molecule, the residual activity (YES1 (human); compound 0.1 µM) was 102%, the residual activity (YES1 (human); compound 1.0 µM) was 99% and the residual activity (YES1 (human); compound 10.0 µM) was 68%.

Reference: the kinase profiling compilation of Christmann-Franck et al. (2016)
